Source: PMC8371461 (Frontiers in Pharmacology, 2021)

Assays:
Experiment in all cases: kinome scan
Assay type in all cases: binding
WEE1 = target: T1, WEE1 (Homo sapiens, UniProt P30291); details: 10 µM
T1 construct: purchased DiscoverX (KINOMEscan)

FYN = target: T2, FYN (Homo sapiens, UniProt P06241); details: 10 µM
T2 construct: purchased DiscoverX (KINOMEscan)

p38-delta = target: T3, p38-delta (Homo sapiens, UniProt O15264); details: 10 µM
T3 construct: purchased DiscoverX (KINOMEscan)

BRAF = target: T4, BRAF (Homo sapiens, UniProt P15056); details: 10 µM
T4 construct: purchased DiscoverX (KINOMEscan)

LRRK2 = target: T5, LRRK2 (Homo sapiens, UniProt Q5S007); details: 10 µM
T5 construct: purchased DiscoverX (KINOMEscan)

AAK1 = target: T6, AAK1 (Homo sapiens, UniProt Q2M2I8); details: 10 µM
T6 construct: purchased DiscoverX (KINOMEscan)

[1] = target: T7, ABL1(E255K)-phosphorylated (Homo sapiens, UniProt P00519, E255K); details: 10 µM
T7 construct: purchased DiscoverX (KINOMEscan)

TESK1 = target: T8, TESK1 (Homo sapiens, UniProt Q15569); details: 10 µM
T8 construct: purchased DiscoverX (KINOMEscan)

NEK4 = target: T9, NEK4 (Homo sapiens, UniProt P51957); details: 10 µM
T9 construct: purchased DiscoverX (KINOMEscan)

PIK3CA(E545K) = target: T10, PIK3CA(E545K) (Homo sapiens, UniProt P42336, E545K); details: 10 µM
T10 construct: purchased DiscoverX (KINOMEscan)

KIT(A829P) = target: T11, KIT(A829P) (Homo sapiens, UniProt P10721, A829P); details: 10 µM
T11 construct: purchased DiscoverX (KINOMEscan)

PDGFRA = target: T12, PDGFRA (Homo sapiens, UniProt P16234); details: 10 µM
T12 construct: purchased DiscoverX (KINOMEscan)

TAK1 = target: T13, TAK1 (Homo sapiens, UniProt O43318); details: 10 µM
T13 construct: purchased DiscoverX (KINOMEscan)

RIOK3 = target: T14, RIOK3 (Homo sapiens, UniProt O14730); details: 10 µM
T14 construct: purchased DiscoverX (KINOMEscan)

LTK = target: T15, LTK (Homo sapiens, UniProt P29376); details: 10 µM
T15 construct: purchased DiscoverX (KINOMEscan)

HIPK2 = target: T16, HIPK2 (Homo sapiens, UniProt Q9H2X6); details: 10 µM
T16 construct: purchased DiscoverX (KINOMEscan)

ERBB4 = target: T17, ERBB4 (Homo sapiens, UniProt Q15303); details: 10 µM
T17 construct: purchased DiscoverX (KINOMEscan)

EPHB6 = target: T18, EPHB6 (Homo sapiens, UniProt O15197); details: 10 µM
T18 construct: purchased DiscoverX (KINOMEscan)

TXK = target: T19, TXK (Homo sapiens, UniProt P42681); details: 10 µM
T19 construct: purchased DiscoverX (KINOMEscan)

CSK = target: T20, CSK (Homo sapiens, UniProt P41240); details: 10 µM
T20 construct: purchased DiscoverX (KINOMEscan)

MEK1 = target: T21, MEK1 (Homo sapiens, UniProt Q02750); details: 10 µM
T21 construct: purchased DiscoverX (KINOMEscan)

Abelson (Abl) = Abelson (Abl) (Homo sapiens, UniProt P00519); set-up: T7 phage fusion (kinase-tagged phage); purchased DiscoverX (Ambit Biosciences); host or cells: BL21-derived E. coli (T7 phage); details: read-out: Kinome scan (% of control at 10 µM)
Protocol: The kinome scan analysis was performed using the DiscoverX platform (www.discoverx.com). Briefly, T7 kinase-tagged phage strains are grown in parallel in 24-well or 96-well blocks in a BL21-derived E. coli host for 90 min until lysis. Lysates are centrifuged at 6,000 x g and filtered with a 0.2 µm filter to remove cell debris. Streptavidin-coated magnetic beads are treated with biotinylated kinase ligands for 30 min at room temperature to generate the affinity resin. Bound beads are blocked with excess biotin and washed with blocking buffer (SeaBlock (Pierce), 1% BSA, 0.05% Tween 20, and 1 mM DTT) to remove unbound ligand and reduce nonspecific phage binding. […] The final concentration of test compound is 10 µM. Assay plates are incubated at room temperature with shaking for 1 h. Affinity beads are treated four times with washing buffer (1X PBS, 0.05% Tween 20, and 1 mM DTT) to remove unbound phage. […] Q RT PCR is used to measure the amount of phage in each eluate (which is proportional to the amount of kinase bound). […]
Hits are identified by an ultra-sensitive quantitative PCR detecting the specific DNA tag linked to each kinase (Supplementary Figure S2). The drug is used at a concentration of 10 µM and results are expressed as the percentage of signal (kinase PCR detection) with respect to DMSO control conditions. […]

AURKB = target: T22, AURKB (Homo sapiens, UniProt Q96GD4); details: 10 µM
T22 construct: purchased DiscoverX (KINOMEscan)

PKN1 = target: T23, PKN1 (Homo sapiens, UniProt Q16512); details: 10 µM
T23 construct: purchased DiscoverX (KINOMEscan)

DDR1 = target: T24, DDR1 (Homo sapiens, UniProt Q08345); details: 10 µM
T24 construct: purchased DiscoverX (KINOMEscan)

CSNK1A1 = target: T25, CSNK1A1 (Homo sapiens, UniProt P48729); details: 10 µM
T25 construct: purchased DiscoverX (KINOMEscan)

DCAMKL3 = target: T26, DCAMKL3 (Homo sapiens, UniProt Q9C098); details: 10 µM
T26 construct: purchased DiscoverX (KINOMEscan)

NEK9 = target: T27, NEK9 (Homo sapiens, UniProt Q8TD19); details: 10 µM
T27 construct: purchased DiscoverX (KINOMEscan)

TIE2 = target: T28, TIE2 (Homo sapiens, UniProt Q02763); details: 10 µM
T28 construct: purchased DiscoverX (KINOMEscan)

T4 sequence (P15056 whole entry): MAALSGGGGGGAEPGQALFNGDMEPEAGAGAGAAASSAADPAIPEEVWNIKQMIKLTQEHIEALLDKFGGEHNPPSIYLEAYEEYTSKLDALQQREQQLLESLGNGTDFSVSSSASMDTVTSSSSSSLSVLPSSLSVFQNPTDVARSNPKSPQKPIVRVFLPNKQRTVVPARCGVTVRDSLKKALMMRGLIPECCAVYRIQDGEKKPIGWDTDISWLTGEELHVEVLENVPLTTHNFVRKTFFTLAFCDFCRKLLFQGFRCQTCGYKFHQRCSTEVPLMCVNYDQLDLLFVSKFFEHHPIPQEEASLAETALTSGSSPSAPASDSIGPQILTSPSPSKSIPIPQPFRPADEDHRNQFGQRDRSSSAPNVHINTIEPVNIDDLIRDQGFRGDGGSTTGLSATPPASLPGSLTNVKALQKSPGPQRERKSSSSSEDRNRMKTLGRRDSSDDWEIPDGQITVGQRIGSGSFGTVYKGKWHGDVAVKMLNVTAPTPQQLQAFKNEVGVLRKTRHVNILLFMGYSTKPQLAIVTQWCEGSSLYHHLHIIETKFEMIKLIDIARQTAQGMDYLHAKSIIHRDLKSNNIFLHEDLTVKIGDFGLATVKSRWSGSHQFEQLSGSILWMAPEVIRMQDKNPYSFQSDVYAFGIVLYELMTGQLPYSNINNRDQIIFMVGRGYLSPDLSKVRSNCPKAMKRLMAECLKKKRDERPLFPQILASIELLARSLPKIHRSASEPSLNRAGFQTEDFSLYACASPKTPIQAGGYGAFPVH
T16 sequence (Q9H2X6 whole entry): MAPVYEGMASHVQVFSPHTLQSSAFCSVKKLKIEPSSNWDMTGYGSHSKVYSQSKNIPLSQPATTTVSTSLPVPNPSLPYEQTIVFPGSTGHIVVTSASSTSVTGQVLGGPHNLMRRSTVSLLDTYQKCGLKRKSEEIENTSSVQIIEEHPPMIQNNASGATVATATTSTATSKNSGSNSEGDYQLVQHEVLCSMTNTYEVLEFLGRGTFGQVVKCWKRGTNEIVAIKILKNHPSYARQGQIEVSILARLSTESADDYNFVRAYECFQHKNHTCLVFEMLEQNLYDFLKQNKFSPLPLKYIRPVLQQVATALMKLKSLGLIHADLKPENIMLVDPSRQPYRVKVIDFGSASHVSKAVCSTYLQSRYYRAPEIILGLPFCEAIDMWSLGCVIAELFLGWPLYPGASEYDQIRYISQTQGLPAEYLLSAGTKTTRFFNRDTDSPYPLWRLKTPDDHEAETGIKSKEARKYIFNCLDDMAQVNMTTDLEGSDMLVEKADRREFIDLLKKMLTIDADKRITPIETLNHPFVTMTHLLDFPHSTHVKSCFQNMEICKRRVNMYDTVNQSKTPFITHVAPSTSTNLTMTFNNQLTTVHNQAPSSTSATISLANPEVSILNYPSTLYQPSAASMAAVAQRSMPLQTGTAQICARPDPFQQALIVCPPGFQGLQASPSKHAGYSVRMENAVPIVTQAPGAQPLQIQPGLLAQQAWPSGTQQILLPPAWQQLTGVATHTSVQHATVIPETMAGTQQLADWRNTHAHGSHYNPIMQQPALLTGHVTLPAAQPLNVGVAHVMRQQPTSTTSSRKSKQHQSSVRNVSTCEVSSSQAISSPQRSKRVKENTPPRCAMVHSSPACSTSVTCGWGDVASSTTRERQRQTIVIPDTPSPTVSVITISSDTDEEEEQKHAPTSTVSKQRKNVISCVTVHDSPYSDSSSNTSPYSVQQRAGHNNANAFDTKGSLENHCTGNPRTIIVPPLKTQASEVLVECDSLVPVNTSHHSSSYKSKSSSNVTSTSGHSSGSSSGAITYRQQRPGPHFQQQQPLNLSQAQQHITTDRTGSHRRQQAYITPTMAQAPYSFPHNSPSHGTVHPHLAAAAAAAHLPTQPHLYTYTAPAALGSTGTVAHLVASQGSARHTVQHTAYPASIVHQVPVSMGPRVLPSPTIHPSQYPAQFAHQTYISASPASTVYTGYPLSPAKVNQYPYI
T17 sequence (Q15303 26-1308): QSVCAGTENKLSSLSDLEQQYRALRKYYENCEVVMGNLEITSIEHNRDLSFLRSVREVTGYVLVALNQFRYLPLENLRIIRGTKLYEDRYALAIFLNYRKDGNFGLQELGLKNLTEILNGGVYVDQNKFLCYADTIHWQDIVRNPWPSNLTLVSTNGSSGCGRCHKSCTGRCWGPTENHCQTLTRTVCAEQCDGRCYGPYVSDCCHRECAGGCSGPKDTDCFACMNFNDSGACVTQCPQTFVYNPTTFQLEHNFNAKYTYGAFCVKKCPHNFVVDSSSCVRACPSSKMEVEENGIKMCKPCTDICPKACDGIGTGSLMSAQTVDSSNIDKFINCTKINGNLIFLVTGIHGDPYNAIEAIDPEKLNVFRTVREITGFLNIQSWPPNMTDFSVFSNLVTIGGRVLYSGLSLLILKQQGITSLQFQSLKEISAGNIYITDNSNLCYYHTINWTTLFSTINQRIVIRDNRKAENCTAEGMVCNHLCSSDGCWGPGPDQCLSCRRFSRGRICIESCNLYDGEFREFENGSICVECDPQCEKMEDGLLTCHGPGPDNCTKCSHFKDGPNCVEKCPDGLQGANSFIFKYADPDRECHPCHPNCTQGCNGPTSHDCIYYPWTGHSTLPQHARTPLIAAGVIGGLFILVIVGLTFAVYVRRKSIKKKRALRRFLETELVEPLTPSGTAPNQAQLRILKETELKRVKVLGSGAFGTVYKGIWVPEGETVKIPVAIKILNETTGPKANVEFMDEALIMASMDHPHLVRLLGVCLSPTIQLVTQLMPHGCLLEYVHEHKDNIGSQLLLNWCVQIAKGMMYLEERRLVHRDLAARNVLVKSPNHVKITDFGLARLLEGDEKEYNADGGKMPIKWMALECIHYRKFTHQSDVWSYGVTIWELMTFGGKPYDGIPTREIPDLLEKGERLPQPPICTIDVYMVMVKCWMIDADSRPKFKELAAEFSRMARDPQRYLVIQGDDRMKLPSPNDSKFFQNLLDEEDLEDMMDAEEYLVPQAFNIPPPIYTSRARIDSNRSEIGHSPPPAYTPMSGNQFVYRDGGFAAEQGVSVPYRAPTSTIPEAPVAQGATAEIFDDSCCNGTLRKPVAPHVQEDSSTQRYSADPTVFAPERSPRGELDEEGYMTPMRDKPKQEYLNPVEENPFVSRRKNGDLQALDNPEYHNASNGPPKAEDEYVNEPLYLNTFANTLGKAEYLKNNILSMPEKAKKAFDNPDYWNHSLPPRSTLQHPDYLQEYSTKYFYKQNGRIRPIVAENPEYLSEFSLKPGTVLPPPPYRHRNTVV
T6 sequence (Q2M2I8 whole entry): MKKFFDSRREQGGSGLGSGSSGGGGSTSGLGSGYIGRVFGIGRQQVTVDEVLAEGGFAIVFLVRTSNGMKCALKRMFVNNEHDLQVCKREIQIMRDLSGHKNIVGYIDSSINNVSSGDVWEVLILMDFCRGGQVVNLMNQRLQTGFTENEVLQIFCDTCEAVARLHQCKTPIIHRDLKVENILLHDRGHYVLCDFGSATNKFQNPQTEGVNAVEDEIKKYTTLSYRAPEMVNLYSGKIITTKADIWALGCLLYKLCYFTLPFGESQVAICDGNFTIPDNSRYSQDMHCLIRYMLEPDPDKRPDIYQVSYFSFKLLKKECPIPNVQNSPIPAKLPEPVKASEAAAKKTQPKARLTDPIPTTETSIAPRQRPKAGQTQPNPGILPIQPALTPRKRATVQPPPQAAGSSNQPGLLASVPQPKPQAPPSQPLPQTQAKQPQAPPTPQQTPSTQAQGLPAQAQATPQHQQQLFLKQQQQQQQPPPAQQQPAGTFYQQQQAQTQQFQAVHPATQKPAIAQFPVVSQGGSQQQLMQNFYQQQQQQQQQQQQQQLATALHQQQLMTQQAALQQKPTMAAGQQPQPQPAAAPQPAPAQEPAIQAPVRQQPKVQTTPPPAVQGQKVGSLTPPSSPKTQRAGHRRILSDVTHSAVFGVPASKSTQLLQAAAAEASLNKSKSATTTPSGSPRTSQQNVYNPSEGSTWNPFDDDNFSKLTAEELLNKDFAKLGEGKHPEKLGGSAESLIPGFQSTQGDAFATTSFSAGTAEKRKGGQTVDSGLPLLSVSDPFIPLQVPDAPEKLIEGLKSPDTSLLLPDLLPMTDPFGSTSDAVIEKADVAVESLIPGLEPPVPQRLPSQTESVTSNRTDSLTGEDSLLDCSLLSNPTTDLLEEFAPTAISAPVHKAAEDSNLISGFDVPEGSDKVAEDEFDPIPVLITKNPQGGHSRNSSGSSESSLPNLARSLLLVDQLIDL
T13 sequence (O43318 whole entry): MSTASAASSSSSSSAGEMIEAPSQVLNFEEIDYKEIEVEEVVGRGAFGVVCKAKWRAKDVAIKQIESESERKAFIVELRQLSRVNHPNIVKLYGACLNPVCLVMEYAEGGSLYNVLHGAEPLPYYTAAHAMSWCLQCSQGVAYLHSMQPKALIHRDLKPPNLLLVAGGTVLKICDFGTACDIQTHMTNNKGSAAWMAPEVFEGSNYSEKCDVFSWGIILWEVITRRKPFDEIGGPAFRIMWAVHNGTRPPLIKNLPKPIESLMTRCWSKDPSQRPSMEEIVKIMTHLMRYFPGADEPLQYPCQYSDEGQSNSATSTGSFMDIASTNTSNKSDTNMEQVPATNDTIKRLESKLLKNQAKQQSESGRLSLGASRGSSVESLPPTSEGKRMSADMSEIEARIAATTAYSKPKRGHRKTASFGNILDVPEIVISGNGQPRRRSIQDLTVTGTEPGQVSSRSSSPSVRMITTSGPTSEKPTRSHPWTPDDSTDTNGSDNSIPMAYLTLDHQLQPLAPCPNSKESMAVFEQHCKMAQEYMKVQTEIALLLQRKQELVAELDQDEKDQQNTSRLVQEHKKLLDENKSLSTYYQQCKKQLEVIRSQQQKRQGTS

With Nc1ccc(N=Nc2ccccc2)c(N)n1 [phenazopyridine, 2,6-diamino-3-(phenylazo)pyridine] the kinase inhibition (WEE1) was 100, the “remaining binding (% of control)” value (FYN) was 100 and the kinase inhibition (p38-delta) was 89. For the same compound, the kinase inhibition (BRAF) was 96, the kinase inhibition (LRRK2) was 100 and the kinase inhibition (AAK1) was 79. The kinase inhibition [1] was 62, the kinase inhibition (TESK1) was 100 and the kinase inhibition (NEK4) was 100. The kinase inhibition (PIK3CA(E545K)) was 88, the kinase inhibition (KIT(A829P)) was 95 and the kinase inhibition (PDGFRA) was 38. The kinase inhibition (TAK1) was 80, the “remaining binding (% of control)” value (RIOK3) was 100 and the kinase inhibition (LTK) was 96. The kinase inhibition (HIPK2) was 89, the kinase inhibition (ERBB4) was 78 and the kinase inhibition (EPHB6) was 67. The “remaining binding (% of control)” value (TXK) was 100, the kinase inhibition (CSK) was 100 and the kinase inhibition (MEK1) was 99. It also gave a remaining binding at 10 µM (Abelson (Abl)) of 48%, a kinase inhibition (AURKB) of 72 and a kinase inhibition (PKN1) of 100. It also gave a kinase inhibition (DDR1) of 96, a kinase inhibition (CSNK1A1) of 85 and a kinase inhibition (DCAMKL3) of 92. The kinase inhibition (NEK9) was 100 and the kinase inhibition (TIE2) was 98.
